Experimental data from US9695155B2, “Herbicidal substituted pyrimidinyloxy benzene compounds” (E. I. DU PONT DE NEMOURS AND COMPANY, priority 2013, dated 2017).

Experiments:
large (Lg) crabgrass [1] = assay: Test C postemergence; type: in vivo, Digitaria sanguinalis; conditions: for Plant response rating (0 to 100), Crabgrass, Large: 0 is no effect, 100 is complete control; for Crabgrass, Large plant response rating: 31 g ai/ha, 13 to 15 days; for Crabgrass, Large plant response rating / Plant response rating, Crabgrass, Large: scale 0 to 100 (0 no effect, 100 complete control)
How it was run: (§1)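 Visual injury score versus untreated controls, 0 = no effect, 100 = complete control, taken 13 to 15 days after treatment in the greenhouse. Pre-emergence pots held loam/sand; post-emergence plants grew in sphagnum peat/vermiculite mix and were sprayed at the 1- to 4-leaf stage.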

morningglory [2] = assay: Test A postemergence; type: in vivo, Ipomoea spp.; conditions: 0 to 100 scale where 0 is no effect and 100 is complete control; for Morningglory plant response rating: 125 g ai/ha; for Plant response rating, Morningglory: 500 g ai/ha
How it was run: (§2)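 Scoring: eye-based comparison with untreated controls, 0 for no effect through 100 for complete control, at about day 10. Treatments: directed soil spray preemergence; foliar spray postemergence on 2–10 cm plants at the one- to two-leaf stage. Medium: loam soil with sand.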

corn = assay: Test C postemergence; type: in vivo, Zea mays; conditions: for Plant response rating (0 to 100), Corn: 0 is no effect, 100 is complete control; for Corn plant response rating: 31 g ai/ha, 13 to 15 days; for Corn plant response rating / Plant response rating, Corn: scale 0 to 100 (0 no effect, 100 complete control)
How it was run: as §1

Italian ryegrass = assay: Test C postemergence; type: in vivo, Lolium multiflorum; conditions: for Plant response rating (0 to 100), Ryegrass, Italian: 0 is no effect, 100 is complete control; for Ryegrass, Italian plant response rating: 31 g ai/ha, 13 to 15 days; for Ryegrass, Italian plant response rating / Plant response rating, Ryegrass, Italian: scale 0 to 100 (0 no effect, 100 complete control)
How it was run: as §1

wild oat = assay: Test C postemergence; type: in vivo, Avena fatua; conditions: for Plant response rating (0 to 100), Oat, Wild: 0 is no effect, 100 is complete control; for Oat, Wild plant response rating: 31 g ai/ha, 13 to 15 days; for Oat, Wild plant response rating / Plant response rating, Oat, Wild: scale 0 to 100 (0 no effect, 100 complete control)
How it was run: as §1

chickweed = assay: Test C postemergence; type: in vivo, Stellaria media; conditions: for Plant response rating (0 to 100), Chickweed: 0 is no effect, 100 is complete control; for Chickweed plant response rating: 31 g ai/ha, 13 to 15 days; for Chickweed plant response rating / Plant response rating, Chickweed: scale 0 to 100 (0 no effect, 100 complete control)
How it was run: as §1

velvetleaf = assay: Test A preemergence; type: in vivo, Abutilon theophrasti; conditions: for Velvetleaf plant response rating (0 to 100 scale): 125 g ai/ha; for Velvetleaf plant response rating: 500 g ai/ha, 0 to 100 scale where 0 is no effect and 100 is complete control
How it was run: as §2

johnsongrass = assay: Test C postemergence; type: in vivo, Sorghum halepense; conditions: for Plant response rating (0 to 100), Johnsongrass: 0 is no effect, 100 is complete control; for Johnsongrass plant response rating: 31 g ai/ha, 13 to 15 days; for Johnsongrass plant response rating / Plant response rating, Johnsongrass: scale 0 to 100 (0 no effect, 100 complete control)
How it was run: as §1

blackgrass = assay: Test C postemergence; type: in vivo, Alopecurus myosuroides; conditions: for Plant response rating (0 to 100), Blackgrass: 0 is no effect, 100 is complete control; for Blackgrass plant response rating: 31 g ai/ha, 13 to 15 days; for Blackgrass plant response rating / Plant response rating, Blackgrass: scale 0 to 100 (0 no effect, 100 complete control)
How it was run: as §1

large (Lg) crabgrass [3] = assay: Test A preemergence; type: in vivo, Digitaria sanguinalis; conditions: 0 to 100 scale where 0 is no effect and 100 is complete control; for Plant response rating, Crabgrass, Large: 125 g ai/ha; for Crabgrass, Large plant response rating: 500 g ai/ha
How it was run: as §2

yellow nutsedge = assay: Test C postemergence; type: in vivo, Cyperus esculentus; conditions: for Plant response rating (0 to 100), Nutsedge, Yellow: 0 is no effect, 100 is complete control; for Nutsedge, Yellow plant response rating: 31 g ai/ha, 13 to 15 days; for Nutsedge, Yellow plant response rating / Plant response rating, Nutsedge, Yellow: scale 0 to 100 (0 no effect, 100 complete control)
How it was run: as §1

waterhemp = assay: Test C postemergence; type: in vivo, Amaranthus rudis; conditions: for Plant response rating (0 to 100), Waterhemp: 0 is no effect, 100 is complete control; for Waterhemp plant response rating: 31 g ai/ha, 13 to 15 days; for Waterhemp plant response rating / Plant response rating, Waterhemp: scale 0 to 100 (0 no effect, 100 complete control)
How it was run: as §1

morningglory [4] = assay: Test A preemergence; type: in vivo, Ipomoea spp.; conditions: for Morningglory plant response rating (0 to 100 scale): 125 g ai/ha; for Morningglory plant response rating: 500 g ai/ha, 0 to 100 scale where 0 is no effect and 100 is complete control
How it was run: as §2

giant foxtail [5] = assay: Test C postemergence; type: in vivo, Setaria faberii; conditions: for Plant response rating (0 to 100), Foxtail, Giant: 0 is no effect, 100 is complete control; for Foxtail, Giant plant response rating: 31 g ai/ha, 13 to 15 days; for Foxtail, Giant plant response rating / Plant response rating, Foxtail, Giant: scale 0 to 100 (0 no effect, 100 complete control)
How it was run: as §1

giant foxtail [6] = assay: Test A preemergence; type: in vivo, Setaria faberii; conditions: 0 to 100 scale where 0 is no effect and 100 is complete control; for Plant response rating, Foxtail, Giant: 125 g ai/ha; for Foxtail, Giant plant response rating: 500 g ai/ha
How it was run: as §2

[7] = 125 g ai/ha, postemergence, visual rating

Fc1cnc(Oc2cccc(C(F)F)c2-n2cc(C(F)(F)F)cn2)nc1 [Compound 164]
Plant response rating (0 to 100), Crabgrass, Large (large (Lg) crabgrass [1]; 16 g ai/ha, postemergence): 5
Crabgrass, Large plant response rating (large (Lg) crabgrass [1]; postemergence, visual rating): 5
Plant response rating, Crabgrass, Large (large (Lg) crabgrass [1]; [7]): 10
Plant response rating, Crabgrass, Large (large (Lg) crabgrass [1]; Postemergence, 62 g ai/ha): 5
Morningglory plant response rating (morningglory [2]): 80
Plant response rating, Morningglory (morningglory [2]): 100
Plant response rating (0 to 100), Corn (corn; 16 g ai/ha, postemergence): 0
Corn plant response rating (corn; postemergence, visual rating): 5
Plant response rating, Corn (corn; [7]): 5
Plant response rating, Corn (corn; Postemergence, 62 g ai/ha): 5
Plant response rating (0 to 100), Ryegrass, Italian (Italian ryegrass; 16 g ai/ha, postemergence): 0
Ryegrass, Italian plant response rating (Italian ryegrass; postemergence, visual rating): 0
Plant response rating, Ryegrass, Italian (Italian ryegrass; [7]): 0
Plant response rating, Ryegrass, Italian (Italian ryegrass; Postemergence, 62 g ai/ha): 0
Plant response rating (0 to 100), Oat, Wild (wild oat; 16 g ai/ha, postemergence): 0
Oat, Wild plant response rating (wild oat; postemergence, visual rating): 5
Plant response rating, Oat, Wild (wild oat; [7]): 15
Plant response rating, Oat, Wild (wild oat; Postemergence, 62 g ai/ha): 5
Plant response rating (0 to 100), Chickweed (chickweed; 16 g ai/ha, postemergence): 45
Chickweed plant response rating (chickweed; postemergence, visual rating): 50
Plant response rating, Chickweed (chickweed; [7]): 90
Plant response rating, Chickweed (chickweed; Postemergence, 62 g ai/ha): 80
Velvetleaf plant response rating (0 to 100 scale) (velvetleaf): 100
Velvetleaf plant response rating (velvetleaf): 100
Plant response rating (0 to 100), Johnsongrass (johnsongrass; 16 g ai/ha, postemergence): 0
Johnsongrass plant response rating (johnsongrass; postemergence, visual rating): 0
Plant response rating, Johnsongrass (johnsongrass; [7]): 10
Plant response rating, Johnsongrass (johnsongrass; Postemergence, 62 g ai/ha): 5
Plant response rating (0 to 100), Blackgrass (blackgrass; 16 g ai/ha, postemergence): 0
Blackgrass plant response rating (blackgrass; postemergence, visual rating): 0
Plant response rating, Blackgrass (blackgrass; [7]): 15
Plant response rating, Blackgrass (blackgrass; Postemergence, 62 g ai/ha): 5
Plant response rating, Crabgrass, Large (large (Lg) crabgrass [3]): 100
Crabgrass, Large plant response rating (large (Lg) crabgrass [3]): 100
Plant response rating (0 to 100), Nutsedge, Yellow (yellow nutsedge; 16 g ai/ha, postemergence): 5
Nutsedge, Yellow plant response rating (yellow nutsedge; postemergence, visual rating): 5
Plant response rating, Nutsedge, Yellow (yellow nutsedge; [7]): 5
Plant response rating, Nutsedge, Yellow (yellow nutsedge; Postemergence, 62 g ai/ha): 5
Plant response rating (0 to 100), Waterhemp (waterhemp; 16 g ai/ha, postemergence): 50
Waterhemp plant response rating (waterhemp; postemergence, visual rating): 45
Plant response rating, Waterhemp (waterhemp; [7]): 75
Plant response rating, Waterhemp (waterhemp; Postemergence, 62 g ai/ha): 65
Morningglory plant response rating (0 to 100 scale) (morningglory [4]): 80
Morningglory plant response rating (morningglory [4]): 100
Plant response rating (0 to 100), Foxtail, Giant (giant foxtail [5]; 16 g ai/ha, postemergence): 0
Foxtail, Giant plant response rating (giant foxtail [5]; postemergence, visual rating): 20
Plant response rating, Foxtail, Giant (giant foxtail [5]; [7]): 10
Plant response rating, Foxtail, Giant (giant foxtail [5]; Postemergence, 62 g ai/ha): 10
Plant response rating, Foxtail, Giant (giant foxtail [6]): 90
Foxtail, Giant plant response rating (giant foxtail [6]): 100

O=Cc1cccc(Oc2ncc(I)cn2)c1-n1cc(Br)cn1 [Compound 172]
Plant response rating (0 to 100), Crabgrass, Large (large (Lg) crabgrass [1]; 8 g ai/ha, postemergence): 0
Plant response rating (0 to 100), Crabgrass, Large (large (Lg) crabgrass [1]; 16 g ai/ha, postemergence): 0
Crabgrass, Large plant response rating (large (Lg) crabgrass [1]; postemergence, visual rating): 0
Plant response rating, Crabgrass, Large (large (Lg) crabgrass [1]; Postemergence, 62 g ai/ha): 0
Morningglory plant response rating (morningglory [2]): 80
Plant response rating, Morningglory (morningglory [2]): 90
Plant response rating (0 to 100), Corn (corn; 8 g ai/ha, postemergence): 0
Plant response rating (0 to 100), Corn (corn; 16 g ai/ha, postemergence): 0
Corn plant response rating (corn; postemergence, visual rating): 0
Plant response rating, Corn (corn; Postemergence, 62 g ai/ha): 0
Plant response rating (0 to 100), Ryegrass, Italian (Italian ryegrass; 8 g ai/ha, postemergence): 0
Plant response rating (0 to 100), Ryegrass, Italian (Italian ryegrass; 16 g ai/ha, postemergence): 0
Ryegrass, Italian plant response rating (Italian ryegrass; postemergence, visual rating): 0
Plant response rating, Ryegrass, Italian (Italian ryegrass; Postemergence, 62 g ai/ha): 5
Plant response rating (0 to 100), Oat, Wild (wild oat; 8 g ai/ha, postemergence): 0
Plant response rating (0 to 100), Oat, Wild (wild oat; 16 g ai/ha, postemergence): 0
Oat, Wild plant response rating (wild oat; postemergence, visual rating): 0
Plant response rating, Oat, Wild (wild oat; Postemergence, 62 g ai/ha): 0
Plant response rating (0 to 100), Chickweed (chickweed; 8 g ai/ha, postemergence): 0
Plant response rating (0 to 100), Chickweed (chickweed; 16 g ai/ha, postemergence): 0
Chickweed plant response rating (chickweed; postemergence, visual rating): 50
Plant response rating, Chickweed (chickweed; Postemergence, 62 g ai/ha): 70
Velvetleaf plant response rating (0 to 100 scale) (velvetleaf): 0
Velvetleaf plant response rating (velvetleaf): 0
Plant response rating (0 to 100), Johnsongrass (johnsongrass; 8 g ai/ha, postemergence): 0
Plant response rating (0 to 100), Johnsongrass (johnsongrass; 16 g ai/ha, postemergence): 0
Johnsongrass plant response rating (johnsongrass; postemergence, visual rating): 10
Plant response rating, Johnsongrass (johnsongrass; Postemergence, 62 g ai/ha): 10
Plant response rating (0 to 100), Blackgrass (blackgrass; 8 g ai/ha, postemergence): 0
Plant response rating (0 to 100), Blackgrass (blackgrass; 16 g ai/ha, postemergence): 0
Blackgrass plant response rating (blackgrass; postemergence, visual rating): 20
Plant response rating, Blackgrass (blackgrass; Postemergence, 62 g ai/ha): 0
Plant response rating, Crabgrass, Large (large (Lg) crabgrass [3]): 0
Crabgrass, Large plant response rating (large (Lg) crabgrass [3]): 30
Plant response rating (0 to 100), Nutsedge, Yellow (yellow nutsedge; 8 g ai/ha, postemergence): 0
Plant response rating (0 to 100), Nutsedge, Yellow (yellow nutsedge; 16 g ai/ha, postemergence): 0
Nutsedge, Yellow plant response rating (yellow nutsedge; postemergence, visual rating): 5
Plant response rating, Nutsedge, Yellow (yellow nutsedge; Postemergence, 62 g ai/ha): 5
Plant response rating (0 to 100), Waterhemp (waterhemp; 8 g ai/ha, postemergence): 0
Plant response rating (0 to 100), Waterhemp (waterhemp; 16 g ai/ha, postemergence): 5
Waterhemp plant response rating (waterhemp; postemergence, visual rating): 5
Plant response rating, Waterhemp (waterhemp; Postemergence, 62 g ai/ha): 5
Morningglory plant response rating (0 to 100 scale) (morningglory [4]): 0
Morningglory plant response rating (morningglory [4]): 0
Plant response rating (0 to 100), Foxtail, Giant (giant foxtail [5]; 8 g ai/ha, postemergence): 0
Plant response rating (0 to 100), Foxtail, Giant (giant foxtail [5]; 16 g ai/ha, postemergence): 10
Foxtail, Giant plant response rating (giant foxtail [5]; postemergence, visual rating): 0
Plant response rating, Foxtail, Giant (giant foxtail [5]; Postemergence, 62 g ai/ha): 5
Plant response rating, Foxtail, Giant (giant foxtail [6]): 0
Foxtail, Giant plant response rating (giant foxtail [6]): 0
